In article PMC4291531 (The Journal of Experimental Medicine, 2015):

T1: human MD-2 (Homo sapiens, UniProt Q9Y6Y9)
T1 sequence (Q9Y6Y9 19-160): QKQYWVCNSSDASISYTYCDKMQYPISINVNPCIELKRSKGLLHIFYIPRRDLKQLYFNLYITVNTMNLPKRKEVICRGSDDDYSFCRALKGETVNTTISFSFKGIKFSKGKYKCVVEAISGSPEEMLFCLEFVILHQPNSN


Legend:
human MD-2 = biological target: T1, human MD-2; experiment: SPR; assay type: binding; conditions: MD-2 coated on chip; for reduction in MD-2 binding as compared with disulfide HMGB1: SPR, HMGB1 isoforms
immune cells = conditions: ref Tang et al., 2012, Venereau et al.; cited from earlier work
RAW 264.7 cells = experiment: TNF release from RAW 264.7 cells stimulated with HMGB1 isoforms; conditions: 1 µg/ml, 16 h, n = 3–5 experiments
[1] = biological target: human MD-2 (myeloid differentiation factor 2) (human) (UniProt Q9Y6Y9); experiment: SPR
[2] = tested on: thioglycollate-elicited peritoneal macrophages (WT and MD-2 KO); assay type: cell-based; conditions: MD-2 KO vs WT macrophages; mouse cytokine antibody array
WT or MD-2 KO mice = experiment: APAP hepatotoxicity in WT or MD-2 KO mice; assay type: in vivo, mouse

Sequence of sulfonyl HMGB1 (P63159 whole entry): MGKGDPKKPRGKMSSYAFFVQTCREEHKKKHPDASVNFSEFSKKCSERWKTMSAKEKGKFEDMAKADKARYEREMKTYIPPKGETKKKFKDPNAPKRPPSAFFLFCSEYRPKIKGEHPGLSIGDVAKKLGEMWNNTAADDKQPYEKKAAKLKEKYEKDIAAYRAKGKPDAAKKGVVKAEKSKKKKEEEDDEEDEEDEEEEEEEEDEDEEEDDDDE

| Molecule | reduction in MD-2 binding as compared with disulfide HMGB1 (human MD-2) | extracellular chemokine/cytokine activity (in words) (immune cells) | TNF release induced by HMGB1 isoform (RAW 264.7 cells) | also measured |
| --- | --- | --- | --- | --- |
| sulfonyl HMGB1: HMGB1 with all cysteines terminally oxidized | > 1,000 fold | devoid of chemotactic and cytokine activities | failed to induce TNF release |  |
| sulfonyl HMGB1 (from UniProt P63159 1-215) (natural protein) |  |  |  | fold reduction in MD-2 binding against disulfide HMGB1 [1]: > 1000 fold |
| disulfide HMGB1 (from UniProt P63159 1-215) (natural protein) |  |  |  | Kd [1]: 12 nM |
| H2S-modified HMGB1: HMGB1 S-sulfhydrated by incubation with 5 mM NaSH for 3 h at room temperature | > 1,000 fold |  | failed to induce TNF release |  |
| fully reduced HMGB1: HMGB1 with all cysteine residues reduced (DTT-reduced) | > 1,000 fold | binds to CXCL12 and stimulates immune cell infiltration via the CXCR4 receptor | failed to induce TNF release |  |
| disulfide HMGB1: recombinant cytokine-stimulating HMGB1; disulfide bond between cysteines 23 and 45 and reduced thiol on cysteine 106 |  | activates immune cells to produce cytokines/chemokines via the TLR4 receptor | induced TNF secretion | MD-2 binding (in words) (human MD-2; SPR Biacore): binds to MD-2 with high affinity; release of IL-12/p40 stimulated with HMGB1 [2]: via an MD-2–independent mechanism |
| CC(=O)Nc1ccc(O)cc1 [APAP, acetaminophen] |  |  |  | serum HMGB1 levels, WT and MD-2 KO mice (WT or MD-2 KO mice; 24 h after APAP): comparably elevated in WT and MD-2 KO mice; APAP acute hepatic injury (GLDH, AST, ALT, necrosis), MD-2 KO vs WT (WT or MD-2 KO mice; APAP 400 mg/kg i.p., 24 h, n = 5–13 mice per group): significant reduction in acute hepatic injury; cytokine release and APAP-induced lethality, MD-2 KO vs WT (WT or MD-2 KO mice; APAP i.p. 400 mg/kg (serum, 24 h), 350 mg/kg (survival, n = 15)): significant reduction in cytokine (TNF and IL-6) release and APAP-induced animal lethality |
| Hg-HMGB1: HMGB1 with mercury thiolate on cysteine at position 106 (protein, UniProt P09429 1-215, looked up, mercury thiolate on C106) High mobility group protein B1: MGKGDPKKPRGKMSSYAFFVQTCREEHKKKHPDASVNFSEFSKKCSERWKTMSAKEKGKFEDMAKADKARYEREMKTYIPPKGETKKKFKDPNAPKRPPSAFFLFCSEYRPKIKGEHPGLSIGDVAKKLGEMWNNTAADDKQPYEKKAAKLKEKYEKDIAAYRAKGKPDAAKKGVVKAEKSKKKKEEEEDEEDEEDEEEEEDEEDEDEEEDDDDE |  |  | Noncytokine-inducing |  |
